These results are taken from ChEMBL document CHEMBL1149751, “Bioactive constituents from the twigs of Asimina parviflora” (J Nat Prod, 1992).

SMILES strings stand for the structures. ≈ marks a conversion by molar mass, not a printed value.

One data set relates to MCF7. As to the kind of experiment: Cytotoxicity against human MCF7 cells after 7 days. It counts as functional. To be noted: MCF7, 168 h, read-out: ED50 (the source's name).
The next data set concerns A549. As to the kind of experiment: Cytotoxicity against human A549 cells after 7 days. The class given is functional. Conditions: for EC50: Homo sapiens, A549, 168 h, read-out: ED50 (the source's name).
Data set [1] can be described thus: Toxicity in brine shrimp. It counts as organism-based. To be noted: artemia, in vivo.
The next data set concerns HT-29. Briefly: Cytotoxicity against human HT-29 cells after 7 days. The class given is functional. To be noted: for EC50: Homo sapiens, HT-29, 168 h, read-out: ED50 (the source's name).

As a reminder, the LC50 is the concentration lethal to half of the exposed cells or organisms. Lower therefore signals a more lethal substance. Consider `CCCCCCCCCCCCCCC/C=C\CCCCC(N)=O`, for which the figures for the EC50 in the data set with MCF7, with A549 and in the data set with HT-29 were 2.91 µg/mL (≈ 8.62 µM), 3.16 µg/mL (≈ 9.36 µM) and less than 0.01 µg/mL, respectively. Moreover, in data set [1], the LC50 is 2.45 µg/mL (≈ 7.26 µM).

With `COc1c(OC)c2c(C)cc3c(O)cccc3c2[nH]c1=O` [ASIMICILONE], the EC50 in the data set with MCF7 was determined as 7.22 µg/mL (≈ 25.3 µM); with A549 it was 2.13 µg/mL (≈ 7.47 µM); in the data set with HT-29, 3.25 µg/mL (≈ 11.4 µM). The LC50 in data set [1] was 2.15 µg/mL (≈ 7.54 µM).

In the case of `CCCCCCCCCCC(O)C1CCC(C2CCC(C(O)CCCCCCCC[C@H](O)CC3=C[C@@H](C)OC3=O)O2)O1` (stereo partly drawn) [ASIMICIN], the ED50 in the data set with A549 was 8.43 ×10⁻⁴ ug/ml; with HT-29, less than 1 ×10⁻¹⁵ ug/ml.

In turn, `CCCCCCCCCC[C@@H](O)[C@H]1CC[C@H]([C@H]2CC[C@H]([C@H](O)CCCCCCCCCC[C@@H](O)CC3=C[C@H](C)OC3=O)O2)O1` [ASIMICIN] yielded an LC50 in data set [1] of 0.025 µg/mL (≈ 0.0401 µM).

As for `COc1cccc2c1C(=O)c1c(O)c3c(c(O)c1C2=O)C[C@@](O)(C(=O)CO)C[C@@H]3O[C@H]1C[C@H](N)[C@H](O)[C@H](C)O1` [DOXORUBICIN], the EC50 with MCF7 was found to be 0.231 µg/mL (≈ 0.425 µM); in the data set on HT-29, 0.00445 µg/mL (≈ 0.00819 µM). Further, the ED50 with A549 was determined as 5.04 ×10⁻⁴ ug/ml. The compound also registered an LC50 in data set [1] of 0.088 µg/mL (≈ 0.162 µM).

Consider `CC[C@H](CC[C@@H](C)[C@H]1CC[C@H]2[C@@H]3CC=C4C[C@@H](O[C@@H]5O[C@H](CO)[C@@H](O)[C@H](O)[C@H]5O)CC[C@]4(C)[C@H]3CC[C@]12C)C(C)C` [SITOGLUSIDE], for which the EC50 turned out to be 44.4 µg/mL (≈ 77 µM) in the data set with MCF7, 4.73 µg/mL (≈ 8.2 µM) in the data set on A549 and 0.444 µg/mL (≈ 0.77 µM) in the data set with HT-29. The LC50 in data set [1] came to 0.14 µg/mL (≈ 0.243 µM).

Turning to `COc1cc([C@H]2OC[C@H]3[C@@H]2CO[C@@H]3c2cc(OC)c(O)c(OC)c2)cc(OC)c1O` [SYRINGARESINOL], the EC50 was determined as 30.3 µg/mL (≈ 72.4 µM) with MCF7, 13.9 µg/mL (≈ 33.3 µM) in the data set with A549 and 0.227 µg/mL (≈ 0.542 µM) in the data set with HT-29. Moreover, the LC50 in data set [1] amounted to 0.65 µg/mL (≈ 1.55 µM).
